Measured values reported in PMC6100259, “Insights into Structure-Activity Relationships of 3-Arylhydrazonoindolin-2-One Derivatives for Their Multitarget Activity on β-Amyloid Aggregation and Neurotoxicity” (Molecules : A Journal of Synthetic Chemistry and Natural …, 2018).
Where two headings read alike, the source gives them in different places.

Tests used:
[1] = Lipophilicity by RP-HPLC (log k'w); assay type: physicochemical; details: RP-HPLC C18, MeOH/10 mM ammonium formate buffer pH 4.5, extrapolated to 100% aqueous mobile phase, 25 °C
Procedure: To place on a more quantitative basis the above SAR trends, the lipophilicity of a number of isatin arylhydrazone derivatives was measured by an RP-HPLC method. The polycratic capacity factors (log k’w) were determined (details in the Experimental Section). Lipophilicity descriptors (i.e., 1-octanol–water partition coefficients) were also calculated (CLOGPs) using two computational tools (Bio-Loom software, v. 1.7 and ACDLabs software, release 10.0). The ACDLabs software was used also for calculating descriptors of polarizability and size, namely molar refractivity (CMR) and molar volume (MV). The experimental lipophilicity parameters (log k’w), along with CMR and MV, are reported in Table 6 for 18 compounds achieving finite IC50s (<100 µM) in the Aβ aggregation assay.
The lipophilicity parameters were determined by an RP-HPLC technique. Methanol solutions of the investigated hydrazone compounds (0.5 mg/mL) were injected into an Agilent 1260 infinity HPLC system (Agilent Technologies Italia, Milan), equipped with a diode array detector (DAD), and a Phenomenex Kinetex C18 column (150 × 4.6 mm, 5 μ, Phenomenex Italy s.r.l., Castel Maggiore, BO, Italy), and eluted at different mobile phase compositions (0.05 increments of MeOH volume fraction in 10 mM ammonium formate buffer at pH 4.5, ranging ϕ between 0.85 and 0.30). All RP-HPLC measurements were carried out at 25 ± 1 °C, at a flow rate of 1.0 mL/min, and at 254 nm wavelength.
The logarithm of capacity factors (log k′ = log (tR − t0)/t0) of each compound at different mobile phase compositions have been calculated; tR represents the retention time of the solute and t0 is the column dead time, measured as the elution time of a KNO3 solution in MeOH. For each compound, the log k′ values increased linearly with decreasing MeOH volume fraction. Logarithms of capacity factors extrapolated to the 100% aqueous mobile phase (log k′w) were calculated from the linear regressions on at least five data points (r^2 > 0.975).

Aβ40 peptide = target: T1, Aβ40 peptide (Homo sapiens, UniProt P05067); test: Inhibition of Aβ40 aggregation, ThT fluorescence-based method; assay type: biochemical; details: for inhibition at 100 µM: Aβ40, compound 100 µM, ThT fluorescence, read-out: % Inhibition @ 100 µM, Aβ antiaggregating activity; for fold less potent than compound 1 (Aβ40 aggregation): ratio of IC50s vs compound 1; for Aβ aggregation inhibition, result in words: Aβ40, ThT assay
T1 construct: we preferred using Aβ40 peptide
Procedure: In vitro inhibition of Aβ aggregation was assessed through a ThT fluorescence-based method, with the use of 2% 1,1,1,3,3,3-hexafluoroisopropanol (HFIP) as aggregation enhancer. In this medium-throughput assay, we preferred using Aβ40 peptide, being more manageable than Aβ42 and less prone to the formation of preaggregates. Samples of Aβ were co-incubated with test molecules in PBS at 100 µM concentration and the antiaggregating activities were measured after 2 h of incubation at 25 °C. For compounds showing >80% Aβ40 aggregation inhibition, IC50s were determined.
The spectrofluorimetric assays, measuring ThT fluorescence in the presence of Aβ, were done as previously described. Briefly, coincubation samples were prepared as described above (Section 2.2 and Section 2.3) in 96-well black, non-binding microplates (Greiner Bio-One GmbH, Frickenhausen, Germany). Fluorimetric reads were performed in a multiplate reader Infinite M1000 Pro (Tecan, Cernusco sul Naviglio, Italy). Each concentration point was run in triplicate. CD ellipticity measures were performed as detailed in ref. [20], following the increase of the negative band at 215 nm as indicative of β-sheet arrangement.

[2] = Aβ40 aggregation inhibition, read-out: pIC50, Aβ antiaggregating potency (converted)
[3] = 2% HFIP, PBS, 2 h at 25 °C, mean ± SEM of three independent experiments

T1 sequence (P05067 672-711 limits assumed): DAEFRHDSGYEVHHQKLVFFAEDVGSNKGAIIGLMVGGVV

SMILES	log k'w [1]	inhibition at 100 µM (Aβ40 peptide; [3])	other results
COc1ccc2c(c1)/C(=N/Nc1ccc(C(C)C)cc1)C(=O)N2CCCc1ccccc1 [Compound 34, (Z)-3-(2-(4-Isopropylphenyl)hydrazono)-5-methoxy-1-(3-phenylpropyl)indolin-2-one]	7.87	–	IC50 (Aβ40 peptide): 0.83 ± 0.2 µM
COc1ccc2c(c1)/C(=N/N(C)c1ccc(C(C)C)cc1)C(=O)N2C [Compound 24, (Z)-3-(2-(4-Isopropylphenyl)-2-methylhydrazono)-5-methoxy-1-methylindolin-2-one]	4.23	–	IC50 (Aβ40 peptide; [2]): 11 µM; fold decrease in inhibition potency compared with 26 (Aβ40 peptide; vs non-methylated compound 26): more than 10 fold
COc1ccc2c(c1)/C(=N/Nc1ccc(C(F)(F)F)cc1)C(=O)N2 [Compound 5, (Z)-5-Methoxy-3-(2-(4-(trifluoromethyl)phenyl)hydrazono)indolin-2-one]	–	57%	–
COc1ccc2c(c1)/C(=N/Nc1nc(-c3cccc(O)c3)cs1)C(=O)N2 [Compound 16, (Z)-3-(2-(4-(3-Hydroxyphenyl)thiazol-2-yl)hydrazono)-5-methoxyindolin-2-one]	4.58	–	IC50 (Aβ40 peptide; [2]): 15.8 µM
CC(C)c1ccc(N/N=C2\C(=O)Nc3cc4c(cc32)OCO4)cc1 [Compound 39, (Z)-7-(2-(4-isopropylphenyl)hydrazono)-5H-[1,3]dioxolo[4,5-f]indol-6(7H)-one]	–	70 ± 4%	–
COc1ccc2c(c1)/C(=N/Nc1ccc(C(C)C)cc1)C(=O)N2Cc1ccccc1 [Compound 32, (Z)-1-Benzyl-3-(2-(4-isopropylphenyl)hydrazono)-5-methoxyindolin-2-one]	7.44	–	IC50 (Aβ40 peptide): 0.53 ± 0.1 µM
COc1ccc2c(c1)/C(=N/Nc1cccc3ccccc13)C(=O)N2 [Compound 8, (Z)-5-Methoxy-3-(2-(naphthalen-1-yl)hydrazono)indolin-2-one]	5.15	–	IC50 (Aβ40 peptide; [2]): 28.2 µM
CC(C)c1ccc(NN=C2C(=O)Nc3ccc(S(=O)(=O)O)cc32)cc1 [Compound 38, Sodium 3-(2-(4-isopropylphenyl)hydrazono)-2-oxoindolin-5-sulfonate]	–	35 ± 4%	–
COc1ccc2c(c1)/C(=N\N=C/c1ccc(C(C)C)cc1)C(=O)N2 [Compound 21, (Z)-3-((E)-(4-Isopropylbenzylidene)hydrazono)-5-methoxyindolin-2-one]	4.82	–	IC50 (Aβ40 peptide; Aβ40, ThT fluorescence, 2% HFIP, PBS, 2 h at 25 °C, mean ± SEM of three independent experiments, read-out: IC50 (µM), Aβ antiaggregating activity): 6.7 ± 0.2 µM
COc1ccc2c(c1)/C(=N/Nc1ccccn1)C(=O)N2 [Compound 7, (Z)-5-Methoxy-3-(2-(pyridin-2-yl)hydrazono)indolin-2-one]	2.34	–	IC50 (Aβ40 peptide): 90 ± 5 µM
COc1ccc2c(c1)/C(=N/Nc1nc(CCl)cs1)C(=O)N2 [Compound 13, (Z)-3-(2-(4-(Chloromethyl)thiazol-2-yl)hydrazono)-5-methoxyindolin-2-one]	3.95	–	IC50 (Aβ40 peptide; [2]): 12.9 µM
COc1cccc(-c2csc(N/N=C3\C(=O)Nc4ccc(OC)cc43)n2)c1 [Compound 17, (Z)-5-Methoxy-3-(2-(4-(3-methoxyphenyl)thiazol-2-yl)hydrazono)indolin-2-one]	5.29	–	IC50 (Aβ40 peptide; [2]): 33.9 µM
COc1ccc2c(c1)/C(=N/Nc1nc(-c3ccccc3)cs1)C(=O)N2 [Compound 15]	5.10	–	IC50 (Aβ40 peptide; [2]): 1.2 µM
COc1ccc2c(c1)/C(=N/Nc1cc(C(F)(F)F)cc(C(F)(F)F)c1)C(=O)N2 [Compound 6, (Z)-3-(2-(3,5-bis(trifluoromethyl)phenyl)hydrazono)-5-methoxyindolin-2-one]	6.29	–	IC50 (Aβ40 peptide): 9.9 ± 0.8 µM; fold less potent than compound 1 (Aβ40 aggregation) (Aβ40 peptide): 25 fold
CCCCc1ccc2c(c1)C(=NNc1ccc(C(C)C)cc1)C(=O)N2 [Compound 36, 5-Butyl-3-(2-(4-isopropylphenyl)hydrazono)indolin-2-one]	–	55 ± 1%	–
COc1ccc2c(c1)/C(=N/Nc1ccc(C(C)C)cc1)C(=O)N2C [Compound 26, (Z)-3-(2-(4-Isopropylphenyl)hydrazono)-5-methoxy-1-methylindolin-2-one]	5.96	–	IC50 (Aβ40 peptide): 0.81 ± 0.11 µM
CC(C)c1ccc(NN=C2C(=O)Nc3c(Br)cccc32)cc1 [Compound 37, 7-Bromo-3-(2-(4-isopropylphenyl)hydrazono)indolin-2-one]	–	< 5%	Aβ aggregation inhibition, result in words (Aβ40 peptide): complete loss of activity
COc1ccc2c(c1)/C(=N/Nc1nc(C)c(C)s1)C(=O)N2 [Compound 14, (Z)-3-(2-(4,5-Dimethylthiazol-2-yl)hydrazono)-5-methoxyindolin-2-one]	–	43%	Aβ aggregation inhibition, result in words (Aβ40 peptide): very weak inhibitor
COc1ccc2[nH]cc(/C=N/Nc3ccc(C(C)C)cc3)c2c1 [Compound 19]	6.42	–	IC50 (Aβ40 peptide): 41 ± 3 µM; fold less potent than compound 1 (Aβ40 aggregation) (Aβ40 peptide): 100 fold
COc1ccc2c(c1)/C(=N/Nc1cccc3cccnc13)C(=O)N2 [Compound 10, (Z)-5-Methoxy-3-(2-(quinolin-8-yl)hydrazono)indolin-2-one]	–	58%	–
COc1ccc2c(c1)/C(=N/Nc1ccc(C#N)cc1)C(=O)N2 [Compound 4, (Z)-4-(2-(5-Methoxy-2-oxoindolin-3-ylidene)hydrazinyl)benzonitrile]	–	16%	–
COc1ccc2c(c1)C(=NNC(=O)c1cccc(Cl)c1)C(=O)N2 [Compound 23, 3-Chloro-N’-(5-methoxy-2-oxoindolin-3-ylidene)benzohydrazide]	–	31%	Aβ aggregation inhibition, result in words (Aβ40 peptide): sharp drop of activity
COc1ccc2c(c1)/C(=N/Nc1ccc(C(C)C)cc1)C(=O)N2CCc1ccccc1 [Compound 33, (Z)-3-(2-(4-Isopropylphenyl)hydrazono)-5-methoxy-1-phenethylindolin-2-one]	7.24	–	IC50 (Aβ40 peptide): 0.61 ± 0.03 µM
COc1ccc2c(c1)/C(=N/Nc1nc(-c3cccc(Br)c3)cs1)C(=O)N2 [Compound 18, (Z)-3-(2-(4-(3-Bromophenyl)thiazol-2-yl)hydrazono)-5-methoxyindolin-2-one]	5.67	–	IC50 (Aβ40 peptide; [2]): 39.8 µM
COc1ccc2c(c1)/C(=N/Nc1ccnc3cc(Cl)ccc13)C(=O)N2 [Compound 11, (Z)-3-(2-(7-Chloroquinolin-4-yl)hydrazono)-5-methoxy-indolin-2-one]	–	14%	Aβ aggregation inhibition, result in words (Aβ40 peptide): very weak inhibitor
COc1ccc2c(c1)/C(=N/Nc1ccc3ccccc3n1)C(=O)N2 [Compound 9, (Z)-5-Methoxy-3-(2-(quinolin-2-yl)hydrazono)indolin-2-one]	–	67%	–
COc1ccc2c(c1)/C(=N\N=C/c1cccc(Cl)c1)C(=O)N2 [Compound 22, (Z)-3-((E)-(3-chlorobenzylidene)hydrazono)-5-methoxyindolin-2-one]	4.21	–	IC50 (Aβ40 peptide; [2]): 11 µM
